Experimental data taken from paper PMC12292992, “Betulinic Acid ω-Triphenylphosphonium Alkyl Esters: Antiproliferative Activities and In Silico Pharmacokinetic Profiles” (Biomedicines, 2025).

Key:
[1] = test system: MRC-5 normal human lung fibroblasts; experiment: MTT cell viability assay, normal lung fibroblasts; assay type: cell-based; settings: MRC5, MRC-5, 72 h
Method: (§1) Human cell lines were obtained from the American Type Culture Collection (ATCC, Manassas, VA, USA). Normal lung MRC-5 fibroblasts (ATCC® CCL-171™), SK-MES-1 lung cancer cells (ATCC® HTB-58™), and J82 bladder carcinoma cells (ATCC® HTB-1™) were grown as monolayers in Eagle’s minimum essential medium (MEM) with Earle’s salts, 2 mM L-glutamine, and 1.5 g/L sodium bicarbonate. Gastric epithelial AGS cells (ATCC® CRL-1739™) were grown as monolayers in Ham’s F-12 medium containing 1 mM L-glutamine and 1.5 g/L sodium bicarbonate. Promyelocytic leukemia HL-60 (ATCC® CCL-240™), colorectal adenocarcinoma HCT-15 (ATCC® CCL-225™), metastatic colorectal COLO205 (ATCC® CCL-222™), and breast cancer AU565 (ATCC® CRL-2351™, ER^−-HER2/neu^+) cells were grown in suspension in an RPMI-1640 medium containing 1 mM sodium pyruvate and 2.0 g/L sodium bicarbonate. Human breast cancer MCF-7 (ATCC® HTB-22™, ER^+-HER2/neu^−) and MDA-MB-231 (ATCC® HTB-26™, ER^−-HER2/neu^−) cells were grown as monolayers in DMEM medium. All media were supplemented with 10% heat-inactivated fetal bovine serum (HI-FBS), 100 IU/mL penicillin G, and 100 µg/mL streptomycin. Cells were maintained at 37 °C in a humidified incubator with 5% CO2.
(§2) MRC-5, SK-MES-1, J82, and AGS cells were seeded at a density of 5 × 10^4 cells/mL in 96-well plates. COLO205, HCT-15, MCF-7, MDA-MB-231, and AU565 cells were seeded at 1 × 10^5 cells/mL, while HL-60 cells were plated at 3 × 10^5 cells/mL. A volume of 100 µL of the cell suspension was added to each well. After 24 h, the compounds were added in increasing concentrations (ranging from 0 to 100 µM), and cells were incubated for 24, 48, or 72 h. The compounds were dissolved in DMSO and diluted in complete medium to a final concentration of 0.5% DMSO. Cells treated with 0.5% DMSO in complete medium were used as viability controls (100%). Etoposide (98% purity, Sigma-Aldrich, St. Louis, MO, USA) was used as the reference compound. Each concentration was tested in quadruplicate, and each experiment was performed twice using independent cell preparations. At the end of the incubation period, cell viability was determined using the MTT reduction assay. The results were transformed into percentages relative to controls, and IC50 values were obtained graphically from the dose–response curves. Results are presented as IC50 values ± standard deviation (SD).

[2] = test system: HL-60 cells; experiment: MTT cell viability assay, leukemia; assay type: cell-based; settings: Homo sapiens, HL-60, 72 h
Method: as §1, §2

[3] = test system: HCT-15 cells; experiment: MTT cell viability assay, colorectal carcinoma; assay type: cell-based, human; settings: for IC50: Homo sapiens
Method: as §1, §2

[4] = test system: MCF-7 cells; experiment: MTT cell viability assay, mammary carcinoma; assay type: cell-based; settings: Homo sapiens, MCF7
Method: as §1, §2

[5] = test system: MDA-MB-231 cells; experiment: MTT cell viability assay, mammary carcinoma; assay type: cell-based; settings: Homo sapiens
Method: as §1, §2

[6] = test system: AU565 cells; experiment: MTT cell viability assay, mammary carcinoma; assay type: cell-based, human; settings: for IC50: Homo sapiens
Method: as §1, §2

[7] = test system: AU565 cells; experiment: Oxygen consumption assay (Clark-type electrode); assay type: cell-based, human; settings: AU565, 10 and 20 µM
Method: (§3) Oxygen consumption of the tumor cells was measured polarographically using a Clark-type electrode (Yellow Springs Instruments, Dayton, OH, USA) placed horizontally in a cell of 0.6 mL volume at 25 °C, coupled to a YSI monitor (model 53). The electrode signal was recorded in a computer connected to a DI-148U module with a USB interface. Data were acquired using the Windaq Acquisition Waveform Recorder software v3.36 (DataQ Instruments, Akron, OH, USA). The test medium used contained 150 mM NaCl, 5 mM KCl, and 1 mM Tris-HCl, and pH 7.4. 5 mM glutamine was added with the cells and test compounds. Oxygen consumption was recorded when the cell aliquots (6 × 10^6 cells) were added. Oligomycin (1.5 μg/mL) was added as an inhibitor of the Fo subunit of ATP synthase prior to the incorporation of the compounds under study. FCCP (carbonyl cyanide-p-trifluoromethoxyphenylhydrazone, 50 nM) was used prior to the addition of test compounds as an internal control to calibrate the electrode system and confirm the maximum uncoupling capacity of the cells.

[8] = test system: MCF-7 cells; experiment: Oxygen consumption assay (Clark-type electrode); assay type: cell-based, human; settings: for oxygen consumption rate: after oligomycin
Method: as §3

[9] = test system: COLO205 cells; experiment: LDH release assay; assay type: cell-based, human; settings: COLO205, 0.5–5 μM, 24 h
Method: (§4) COLO205 and HCT-15 cells were cultured at 2 × 10^4 cells/well in 96-well plates and incubated for 24 h. Afterwards, BA-C4-TPP^+Br^− was added in increasing concentrations (0.5, 1, 2.5, and 5 µM) for 24 h. Finally, the supernatant of each well was transferred to a new plate (10 µL/well), and the LDH reaction mix was added (100 µL/well). The plate was incubated for 20 min at room temperature, and the absorbance of each well was measured using a Varioskan® Flash plate reader (Thermo Scientific, Waltham, MA, USA) at 450 nm. All values are expressed as a percentage of LDH activity relative to cells incubated with Cell Lysis solution (provided in the kit) for 24 h.

[10] = test system: HCT-15 cells; experiment: LDH release assay; assay type: cell-based, human
Method: as §4

Structure (SMILES): C=C(C)[C@@H]1CC[C@]2(C(=O)OCCCC[P+](c3ccccc3)(c3ccccc3)c3ccccc3)CC[C@]3(C)[C@H](CC[C@@H]4[C@@]5(C)CC[C@H](O)C(C)(C)[C@@H]5CC[C@]43C)[C@@H]12 [BA-C4-TPP^+Br^−, 4-Triphenylphosphoniobutyl 3β-hydroxylup-20(29)-en-28-oate bromide]
- IC50 [1]: 0.21 ± 0.01 µM
- IC50 [2]: 0.22 ± 0.04 µM
- increase in potency compared to non-modified BA scaffold ([3]; HCT-15 cells at 72 h): approximately 7 fold
- IC50 ([3]; HCT-15, 24 h): 1.46 ± 0.17 µM
- IC50 ([3]; HCT-15, 48 h): 0.61 ± 0.16 µM
- IC50 ([3]; HCT-15, 72 h): 0.52 ± 0.12 µM
- IC50 ([4]; MCF-7, 24 h): 3.88 ± 0.45 µM
- IC50 ([4]; MCF-7, 48 h): 0.95 ± 0.34 µM
- IC50 ([5]; MDA-MB-231, 24 h): 1.7 ± 0.44 µM
- IC50 ([5]; MDA-MB-231, 48 h): 1.01 ± 0.09 µM
- increase in potency compared to non-modified BA scaffold ([6]; AU565 cells at 48 h): ~15 fold
- IC50 ([6]; AU565, 24 h): 1.66 ± 0.12 µM
- IC50 ([6]; AU565, 48 h): 0.6 ± 0.05 µM
- mitochondrial uncoupling effect [7]: the strongest uncoupler in AU565 cells
- oxygen consumption rate ([8]; MCF-7, 10 µM compound): 12.57 nmol O2 min^−1
- oxygen consumption rate ([8]; MCF-7, 20 µM compound): 21.66 nmol O2 min^−1
- mitochondrial uncoupling effect ([8]; MCF-7, 10 and 20 µM): concentration-dependent
- LDH release [9]: no significant LDH release
- LDH release ([10]; HCT-15, 2.5 μM, 24 h, relative to Cell Lysis solution): 18%
- LDH release relative to control (DMSO) ([10]; HCT-15, 24 h): double the control (DMSO) value
